Measured values taken from ChEMBL document CHEMBL1201862, “PubChem BioAssay data set” (2004).
Activity calls are given as the source filed them.

How the values were obtained:
[1] = target: 1-acylglycerol-3-phosphate O-acyltransferase ABHD5/Perilipin-5 (Homo sapiens, UniProt Q00G26+Q8WTS1); assay: Luminescence-based biochemical high throughput dose response assay for inhibitors of the interaction of the lipase co-activator protein, abhydrolase domain containing 5 (ABHD5) with perilipin-5 (MLDP; PLIN5) (2K validation set). [Related pubchem assays (depositor defined):AID493035, AID493241]
Perilipin-1/ABHD5 = Perilipin-1/ABHD5 (Homo sapiens, UniProt O60240+Q8WTS1); assay: Luminescence-based biochemical high throughput dose response assay for inhibitors of the interaction of the lipase co-activator protein, abhydrolase domain containing 5 (ABHD5) with perilipin-1 (PLIN1) (2K validation set). [Related pubchem assays (depositor defined):AID493027, AID493057]
Troponin, cardiac muscle = Troponin, cardiac muscle (Homo sapiens, UniProt P19429+P45379+P63316); assay: Fluorescence-based biochemical high throughput dose response assay for activators of the calcium sensitivity of cardiac Regulated Thin Filaments (RTF). [Related pubchem assays (depositor defined):AID493008, AID493018, AID504382, AID504383]; assay type: protein-complex assay
[2] = target: Type-1 angiotensin II receptor (Homo sapiens, UniProt P30556); assay: agonist activity at AGTR1 – cell-based, uHTS hits, selectivity assay for APJ receptor agonist project, dose response (AID 488865); assay type: functional;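 note: beta-arrestin recruitment to AT1 measured by enzyme fragment complementation luminescence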
Chain of Type-1 angiotensin II receptor (P30556 whole entry, the tested form may be a part): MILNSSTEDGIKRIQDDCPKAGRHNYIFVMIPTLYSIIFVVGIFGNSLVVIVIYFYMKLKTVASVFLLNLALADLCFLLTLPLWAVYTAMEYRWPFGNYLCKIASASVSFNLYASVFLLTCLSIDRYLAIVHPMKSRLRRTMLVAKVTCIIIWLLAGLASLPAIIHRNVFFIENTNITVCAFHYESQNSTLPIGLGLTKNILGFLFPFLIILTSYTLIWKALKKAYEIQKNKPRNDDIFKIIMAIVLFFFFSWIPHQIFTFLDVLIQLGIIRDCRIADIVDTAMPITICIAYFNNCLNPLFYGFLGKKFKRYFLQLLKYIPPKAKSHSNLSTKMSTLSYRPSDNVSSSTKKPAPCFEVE

Cytochrome P450 3A4 = Cytochrome P450 3A4 (Homo sapiens, UniProt P08684);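 note: CYP3A4 tested as one member of a cytochrome P450 panel screen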
Chain of Cytochrome P450 3A4 (P08684 whole entry): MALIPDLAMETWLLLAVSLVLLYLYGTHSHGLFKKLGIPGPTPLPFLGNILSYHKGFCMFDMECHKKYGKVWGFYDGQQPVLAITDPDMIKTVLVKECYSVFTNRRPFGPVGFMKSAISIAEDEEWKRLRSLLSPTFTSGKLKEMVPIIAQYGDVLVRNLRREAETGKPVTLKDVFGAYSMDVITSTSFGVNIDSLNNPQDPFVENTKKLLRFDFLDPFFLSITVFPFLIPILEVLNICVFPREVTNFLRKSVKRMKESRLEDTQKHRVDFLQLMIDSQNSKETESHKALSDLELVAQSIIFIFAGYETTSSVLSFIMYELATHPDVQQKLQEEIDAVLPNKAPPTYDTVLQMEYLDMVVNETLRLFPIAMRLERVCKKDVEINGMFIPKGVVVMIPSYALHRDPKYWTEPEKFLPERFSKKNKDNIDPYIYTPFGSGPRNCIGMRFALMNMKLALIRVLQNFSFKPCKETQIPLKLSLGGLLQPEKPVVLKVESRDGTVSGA

[3] = target: T1, Short transient receptor potential channel 4 (Mus musculus, UniProt Q9QUQ5); assay: potentiation of DAMGO-evoked TRPC4 calcium signal – cell-based, HEK293 TRPC4/mu-opioid, Fluo-4 calcium, EC20 DAMGO, dose response (AID 434941); assay type: functional
T1 sequence (Q9QUQ5 whole entry): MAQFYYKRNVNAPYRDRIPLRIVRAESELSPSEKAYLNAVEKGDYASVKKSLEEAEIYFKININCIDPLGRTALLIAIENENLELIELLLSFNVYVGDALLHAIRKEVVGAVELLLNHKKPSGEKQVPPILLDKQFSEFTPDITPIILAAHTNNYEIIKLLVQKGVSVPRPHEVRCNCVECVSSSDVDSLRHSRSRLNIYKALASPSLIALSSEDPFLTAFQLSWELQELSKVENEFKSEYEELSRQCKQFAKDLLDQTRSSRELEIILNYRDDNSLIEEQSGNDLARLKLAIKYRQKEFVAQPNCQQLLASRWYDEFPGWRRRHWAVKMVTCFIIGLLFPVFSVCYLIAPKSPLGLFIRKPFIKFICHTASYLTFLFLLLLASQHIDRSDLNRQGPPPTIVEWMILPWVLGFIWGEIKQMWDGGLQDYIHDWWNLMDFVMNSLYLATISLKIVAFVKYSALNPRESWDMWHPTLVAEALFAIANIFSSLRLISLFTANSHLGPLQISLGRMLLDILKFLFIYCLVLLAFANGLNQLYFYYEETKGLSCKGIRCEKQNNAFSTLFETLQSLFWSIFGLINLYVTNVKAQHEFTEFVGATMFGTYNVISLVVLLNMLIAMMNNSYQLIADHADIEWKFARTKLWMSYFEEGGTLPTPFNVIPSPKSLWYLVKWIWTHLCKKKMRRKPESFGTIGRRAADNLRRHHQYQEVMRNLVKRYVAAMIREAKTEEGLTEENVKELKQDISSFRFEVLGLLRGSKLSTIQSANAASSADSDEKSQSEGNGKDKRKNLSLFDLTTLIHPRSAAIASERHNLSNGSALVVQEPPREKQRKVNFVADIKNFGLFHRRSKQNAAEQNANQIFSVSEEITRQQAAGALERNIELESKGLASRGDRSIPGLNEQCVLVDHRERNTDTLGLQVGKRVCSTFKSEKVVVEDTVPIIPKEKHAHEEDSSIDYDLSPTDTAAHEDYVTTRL

[4] = reduction of Shn3 3'UTR-driven luciferase in osteoblasts – cell-based, Clone20 osteoblasts, firefly luciferase, cherry-picked, dose response (AID 624132); assay type: functional;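 note: firefly luciferase luminescence from reporter carrying the Shn3 3'UTR in osteoblasts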
[5] = blockade of melanocortin 4 receptor signaling – cell-based, plate reader, cherry pick, counter-screen for LGR2 antagonist project, dose response (AID 743444); assay type: functional;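 note: transfected HEK 293 cells stimulated with alpha-MSH peptide; potency of inhibitors of the alpha-MSH evoked signal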
[6] = THP-1 cell cytotoxicity, dose response, cytotoxicity control for non-replicating M. tuberculosis project (AID 489025); assay type: functional
[7] = HepG2 cell cytotoxicity, dose response, cytotoxicity control for non-replicating M. tuberculosis project (AID 489018); assay type: functional; conditions: Mycobacterium tuberculosis
cells = assay type: functional
[8] = Vero E6 cell cytotoxicity, dose response, cytotoxicity control for non-replicating M. tuberculosis project, secondary assay (AID 492998); assay type: functional, VeroE6; conditions: Vero C1008
[9] = blockers of bursicon-stimulated LGR2 cAMP reporter – cell-based, HEK293, CRE-luciferase reporter, cherry pick, set 2, dose response (AID 743343); assay type: functional;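 note: transfected cells were stimulated with diluted bursicon conditioned medium after compound addition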
Wee1-like protein kinase = Wee1-like protein kinase (Homo sapiens, UniProt P30291); assay: Dose Response Cell-based Assay for Inhibitors of Wee1 Degradation. [Related pubchem assays: 1410, 1321 ]; assay type: functional
Chain of Wee1-like protein kinase (P30291 whole entry): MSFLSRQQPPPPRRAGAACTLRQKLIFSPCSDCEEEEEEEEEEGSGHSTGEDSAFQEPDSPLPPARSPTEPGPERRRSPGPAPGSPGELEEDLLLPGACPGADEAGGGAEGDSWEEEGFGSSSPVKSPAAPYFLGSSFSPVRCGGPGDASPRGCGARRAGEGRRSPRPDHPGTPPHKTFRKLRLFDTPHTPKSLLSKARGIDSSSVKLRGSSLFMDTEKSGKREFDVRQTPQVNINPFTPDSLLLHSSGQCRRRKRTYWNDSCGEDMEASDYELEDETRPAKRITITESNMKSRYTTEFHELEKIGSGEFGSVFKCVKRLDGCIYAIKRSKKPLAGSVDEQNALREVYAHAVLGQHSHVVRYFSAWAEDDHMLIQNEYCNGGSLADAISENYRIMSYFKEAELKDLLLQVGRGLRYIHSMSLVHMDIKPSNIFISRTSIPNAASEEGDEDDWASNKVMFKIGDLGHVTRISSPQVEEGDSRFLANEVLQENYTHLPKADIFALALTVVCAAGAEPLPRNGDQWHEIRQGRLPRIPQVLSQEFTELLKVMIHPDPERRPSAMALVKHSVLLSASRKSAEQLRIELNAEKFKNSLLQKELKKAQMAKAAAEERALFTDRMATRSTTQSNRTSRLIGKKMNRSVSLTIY

[10] = loss of viability in HepG2 cells – cell-based, CellTiter-Glo, cherry-picked, cytotoxicity control for Shn3 inhibitor project, dose response (AID 624134); assay type: functional
[11] = HEK-293T viability loss after treatment – luminescence, T-cell screen hits, cytotoxicity control for TCR NF-kB inhibitor project, dose response (AID 489026); assay type: functional, cell-based;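 note: cells exposed to compound about 14 hours before the viability readout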
[12] = A549 cell cytotoxicity, dose response, cytotoxicity control, plate reader, cherry-pick, antagonist series (AID 743412); assay type: functional, cell-based
HeLa = assay: Cytotoxicity counterscreen assay for transcriptional activators of heat shock protein 70 (Hsp70). [Related pubchem assays: 1203, 1252 ]; assay type: functional; conditions: Homo sapiens;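 note: cells exposed to compound for 16 hours before readout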
[13] = target: G2/mitotic-specific cyclin-B1 (Homo sapiens, UniProt P14635); assay: Counterscreen assay for inhibitors of Wee1 degradation: dose response cell-based assay to identify inhibitors of cyclin B degradation. [Related pubchem assays: 1410, 1321 ]; assay type: functional
[14] = toxicity toward HepG2 liver cells – cell-based, plate reader, cherry-pick, antagonist series, cytotoxicity control, dose response (AID 743416); assay type: functional
[15] = target: T2, Heat shock factor protein 1 (Mus musculus, UniProt P38532); assay: decrease of HSF1-responsive luciferase luminescence – cell-based, NIH3T3, dose retest, confirmation (AID 2382); assay type: functional;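 note: NIH3T3 fibroblasts with HSF1-driven luciferase reporter stressed by proteasome inhibitor MG132; luminescence from HSF1-driven luciferase expression after 8 hours of MG132 stress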
T2 sequence (P38532 whole entry): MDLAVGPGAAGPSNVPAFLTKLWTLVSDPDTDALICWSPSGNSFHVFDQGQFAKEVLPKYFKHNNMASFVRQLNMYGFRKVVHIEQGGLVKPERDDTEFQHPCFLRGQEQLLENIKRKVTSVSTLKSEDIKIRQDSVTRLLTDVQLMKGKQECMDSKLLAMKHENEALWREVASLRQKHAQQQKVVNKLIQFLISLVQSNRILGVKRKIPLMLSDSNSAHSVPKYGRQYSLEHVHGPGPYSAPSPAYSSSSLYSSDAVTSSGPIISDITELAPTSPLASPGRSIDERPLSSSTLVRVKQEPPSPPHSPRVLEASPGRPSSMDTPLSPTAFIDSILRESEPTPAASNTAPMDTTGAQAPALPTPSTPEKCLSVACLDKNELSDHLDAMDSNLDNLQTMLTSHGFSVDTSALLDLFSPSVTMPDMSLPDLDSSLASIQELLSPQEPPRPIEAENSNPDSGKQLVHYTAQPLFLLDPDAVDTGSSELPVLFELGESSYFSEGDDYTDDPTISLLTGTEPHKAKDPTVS

[16] = non-specific 3'UTR reporter inhibition in Clone20-Shn3RL – cell-based, Renilla luciferase, cherry-picked, counter-screen for Shn3 inhibitor project, dose response (AID 624133); assay type: functional
[17] = viability loss in HEK293 cells – cell-based, plate reader, cherry-picked samples, cytotoxicity control, dose response (AID 743446); assay type: functional
Mucolipin-3 = target: T3, Mucolipin-3 (Homo sapiens, UniProt Q8TDD5); assay: Fluorescence counterscreen assay for […] agonists: dose response cell-based high-throughput screening assay to identify agonists of the transient receptor potential channel ML3 (TRPML3). [Related pubchem assays: 1424, 1448 ]; assay type: functional
T3 sequence (Q8TDD5 whole entry): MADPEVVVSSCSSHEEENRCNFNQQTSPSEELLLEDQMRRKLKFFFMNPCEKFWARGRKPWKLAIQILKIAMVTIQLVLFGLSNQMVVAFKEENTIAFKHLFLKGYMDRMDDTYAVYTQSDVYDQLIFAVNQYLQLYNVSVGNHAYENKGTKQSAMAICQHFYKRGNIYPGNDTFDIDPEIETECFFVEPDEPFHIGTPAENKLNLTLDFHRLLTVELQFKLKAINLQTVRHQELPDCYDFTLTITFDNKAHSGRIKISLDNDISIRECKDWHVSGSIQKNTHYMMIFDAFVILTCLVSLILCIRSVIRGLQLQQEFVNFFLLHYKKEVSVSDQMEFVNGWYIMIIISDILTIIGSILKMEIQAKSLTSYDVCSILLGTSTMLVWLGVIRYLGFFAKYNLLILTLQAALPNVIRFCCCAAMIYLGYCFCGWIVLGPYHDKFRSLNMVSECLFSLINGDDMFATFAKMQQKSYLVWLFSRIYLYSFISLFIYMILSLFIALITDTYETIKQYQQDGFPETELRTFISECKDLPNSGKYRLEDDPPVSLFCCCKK

Ion channel NompC = Ion channel NompC (Danio rerio, UniProt Q7T1G6); assay: Dose response cell-based high-throughput screening assay for agonists of the transient receptor potential channel N1 (TRPN1). [Related pubchem assays (depositor defined):AID1424, AID1448]; assay type: functional
Chain of Ion channel NompC (Q7T1G6 whole entry): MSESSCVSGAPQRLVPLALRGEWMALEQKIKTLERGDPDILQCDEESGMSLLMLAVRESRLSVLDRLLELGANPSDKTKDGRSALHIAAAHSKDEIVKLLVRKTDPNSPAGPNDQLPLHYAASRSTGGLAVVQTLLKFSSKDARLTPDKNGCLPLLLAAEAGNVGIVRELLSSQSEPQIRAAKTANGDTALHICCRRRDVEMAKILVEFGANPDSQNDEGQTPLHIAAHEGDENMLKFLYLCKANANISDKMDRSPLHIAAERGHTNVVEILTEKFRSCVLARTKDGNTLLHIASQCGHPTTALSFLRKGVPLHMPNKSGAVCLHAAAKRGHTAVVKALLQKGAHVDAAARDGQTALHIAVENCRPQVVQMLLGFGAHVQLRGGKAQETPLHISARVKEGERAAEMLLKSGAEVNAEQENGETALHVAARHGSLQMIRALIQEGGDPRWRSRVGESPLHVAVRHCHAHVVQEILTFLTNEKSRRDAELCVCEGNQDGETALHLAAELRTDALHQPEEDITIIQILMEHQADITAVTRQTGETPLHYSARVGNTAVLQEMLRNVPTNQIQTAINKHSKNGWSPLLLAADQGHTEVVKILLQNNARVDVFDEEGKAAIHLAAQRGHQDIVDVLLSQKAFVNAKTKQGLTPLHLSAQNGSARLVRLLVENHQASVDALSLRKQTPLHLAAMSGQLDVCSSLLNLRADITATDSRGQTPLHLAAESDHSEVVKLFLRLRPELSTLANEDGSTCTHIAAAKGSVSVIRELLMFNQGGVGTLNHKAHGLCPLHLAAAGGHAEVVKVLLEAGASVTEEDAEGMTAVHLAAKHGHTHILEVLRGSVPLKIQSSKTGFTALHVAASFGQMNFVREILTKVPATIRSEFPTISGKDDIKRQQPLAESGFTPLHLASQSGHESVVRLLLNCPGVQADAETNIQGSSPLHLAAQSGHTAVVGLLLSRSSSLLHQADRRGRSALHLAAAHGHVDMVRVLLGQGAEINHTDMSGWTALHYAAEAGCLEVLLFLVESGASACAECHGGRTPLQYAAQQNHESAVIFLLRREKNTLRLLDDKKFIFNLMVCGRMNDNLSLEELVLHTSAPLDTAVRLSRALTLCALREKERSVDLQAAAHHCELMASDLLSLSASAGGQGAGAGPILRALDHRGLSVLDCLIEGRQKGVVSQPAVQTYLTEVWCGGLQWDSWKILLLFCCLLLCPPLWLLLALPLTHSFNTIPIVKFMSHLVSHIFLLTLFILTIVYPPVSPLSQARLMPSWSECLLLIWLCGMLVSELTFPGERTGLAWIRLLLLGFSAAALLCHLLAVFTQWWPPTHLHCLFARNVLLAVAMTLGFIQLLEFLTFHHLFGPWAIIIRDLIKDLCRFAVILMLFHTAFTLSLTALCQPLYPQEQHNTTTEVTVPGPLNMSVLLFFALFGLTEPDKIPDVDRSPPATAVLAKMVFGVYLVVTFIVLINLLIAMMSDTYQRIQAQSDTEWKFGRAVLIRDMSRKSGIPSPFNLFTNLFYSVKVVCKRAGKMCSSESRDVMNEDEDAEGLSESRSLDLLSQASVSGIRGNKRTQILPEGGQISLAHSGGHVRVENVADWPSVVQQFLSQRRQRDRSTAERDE

[18] = target: T4, Alkaline phosphatase, tissue-nonspecific isozyme (Homo sapiens, UniProt P05186); assay: activation of tissue-nonspecific alkaline phosphatase – biochemical, TNAP isozyme, human IAP uHTS hits, selectivity assay for human IAP activator project, dose response (AID 488886); assay type: functional;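 note: potency of compounds raising TNAP activity as a selectivity check on IAP activators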
T4 sequence (P05186 whole entry): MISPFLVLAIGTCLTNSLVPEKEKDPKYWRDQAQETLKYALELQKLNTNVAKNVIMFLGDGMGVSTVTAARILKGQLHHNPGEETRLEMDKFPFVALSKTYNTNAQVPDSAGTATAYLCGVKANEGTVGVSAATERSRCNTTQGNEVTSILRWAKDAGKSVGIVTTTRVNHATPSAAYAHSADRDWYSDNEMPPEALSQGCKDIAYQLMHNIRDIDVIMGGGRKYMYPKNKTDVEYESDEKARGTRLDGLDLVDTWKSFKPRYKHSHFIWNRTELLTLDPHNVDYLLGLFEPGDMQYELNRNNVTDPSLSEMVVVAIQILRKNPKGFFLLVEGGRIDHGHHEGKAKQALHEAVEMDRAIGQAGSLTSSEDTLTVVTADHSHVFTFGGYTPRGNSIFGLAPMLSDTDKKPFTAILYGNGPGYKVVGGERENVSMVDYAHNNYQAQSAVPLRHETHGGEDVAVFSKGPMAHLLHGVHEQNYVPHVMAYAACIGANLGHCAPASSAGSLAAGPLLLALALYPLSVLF

[19] = target: T5, Intestinal-type alkaline phosphatase (Mus musculus, UniProt P24822); assay: PubChem AID 488875; assay type: functional
T5 sequence (P24822 whole entry): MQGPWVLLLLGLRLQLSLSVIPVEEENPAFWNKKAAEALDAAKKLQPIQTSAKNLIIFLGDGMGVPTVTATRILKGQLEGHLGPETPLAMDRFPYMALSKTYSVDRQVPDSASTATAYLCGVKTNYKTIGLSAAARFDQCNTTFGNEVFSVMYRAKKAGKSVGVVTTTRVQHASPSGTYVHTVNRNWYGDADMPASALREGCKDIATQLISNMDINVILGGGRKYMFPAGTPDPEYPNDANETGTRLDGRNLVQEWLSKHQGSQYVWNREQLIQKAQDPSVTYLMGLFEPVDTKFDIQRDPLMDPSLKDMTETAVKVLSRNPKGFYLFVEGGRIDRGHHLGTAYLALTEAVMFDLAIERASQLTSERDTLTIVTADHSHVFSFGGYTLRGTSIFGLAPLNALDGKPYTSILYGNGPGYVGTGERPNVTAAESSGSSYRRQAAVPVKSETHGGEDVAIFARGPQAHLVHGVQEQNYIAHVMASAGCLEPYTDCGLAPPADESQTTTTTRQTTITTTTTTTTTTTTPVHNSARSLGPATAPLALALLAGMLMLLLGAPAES

[20] = target: T6, Intestinal-type alkaline phosphatase (Homo sapiens, UniProt P09923); assay: human intestinal alkaline phosphatase activators, dose response, biochemical, luminescence, uHTS hits (AID 463120); assay type: functional
T6 sequence (P09923 whole entry): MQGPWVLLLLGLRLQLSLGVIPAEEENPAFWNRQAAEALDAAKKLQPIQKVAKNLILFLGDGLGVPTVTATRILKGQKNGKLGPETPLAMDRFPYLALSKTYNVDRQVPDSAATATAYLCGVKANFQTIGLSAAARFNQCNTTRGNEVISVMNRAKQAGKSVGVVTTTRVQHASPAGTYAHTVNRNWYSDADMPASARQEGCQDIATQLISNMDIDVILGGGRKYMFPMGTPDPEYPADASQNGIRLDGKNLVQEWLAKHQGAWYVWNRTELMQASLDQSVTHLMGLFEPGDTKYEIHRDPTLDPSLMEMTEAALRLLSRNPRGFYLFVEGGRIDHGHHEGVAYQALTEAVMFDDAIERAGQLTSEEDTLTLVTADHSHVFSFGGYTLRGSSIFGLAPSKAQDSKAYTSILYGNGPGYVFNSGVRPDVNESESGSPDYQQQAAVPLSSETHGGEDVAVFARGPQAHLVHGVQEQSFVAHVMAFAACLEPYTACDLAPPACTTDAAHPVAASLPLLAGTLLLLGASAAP

[21] = target: T5, Intestinal-type alkaline phosphatase; assay: PubChem AID 488874; assay type: functional
[22] = target: T6, Intestinal-type alkaline phosphatase; assay: activation of human intestinal alkaline phosphatase – biochemical, luminescent, uHTS hits, set 2, dose response (AID 488817); assay type: functional;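 note: potency of activators that raise enzyme activity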
[23] = target: Sphingosine 1-phosphate receptor 4 (Homo sapiens, UniProt O95977); assay: potency of S1P4 activators – cell-based, fluorescence, synthesized compounds, late-stage follow-up (AID 463107); assay type: functional
Chain of Sphingosine 1-phosphate receptor 4 (O95977 whole entry): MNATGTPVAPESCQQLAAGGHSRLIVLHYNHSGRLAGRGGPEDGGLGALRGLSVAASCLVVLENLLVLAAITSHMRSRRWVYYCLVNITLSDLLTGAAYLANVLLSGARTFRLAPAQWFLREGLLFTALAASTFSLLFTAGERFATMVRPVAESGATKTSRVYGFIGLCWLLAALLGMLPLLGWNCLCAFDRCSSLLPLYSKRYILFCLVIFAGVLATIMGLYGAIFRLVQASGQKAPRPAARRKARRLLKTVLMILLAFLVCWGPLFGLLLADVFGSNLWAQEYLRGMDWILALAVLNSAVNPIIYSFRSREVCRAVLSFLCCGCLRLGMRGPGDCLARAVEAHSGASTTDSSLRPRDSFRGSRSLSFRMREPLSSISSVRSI

[24] = target: G-protein coupled receptor 55 (Homo sapiens, UniProt Q9Y2T6); assay: selective activators of receptor GPR55 – imaging, U2OS cells, beta-arrestin-GFP redistribution, primary screen (AID 1961); assay type: functional
Chain of G-protein coupled receptor 55 (Q9Y2T6 whole entry): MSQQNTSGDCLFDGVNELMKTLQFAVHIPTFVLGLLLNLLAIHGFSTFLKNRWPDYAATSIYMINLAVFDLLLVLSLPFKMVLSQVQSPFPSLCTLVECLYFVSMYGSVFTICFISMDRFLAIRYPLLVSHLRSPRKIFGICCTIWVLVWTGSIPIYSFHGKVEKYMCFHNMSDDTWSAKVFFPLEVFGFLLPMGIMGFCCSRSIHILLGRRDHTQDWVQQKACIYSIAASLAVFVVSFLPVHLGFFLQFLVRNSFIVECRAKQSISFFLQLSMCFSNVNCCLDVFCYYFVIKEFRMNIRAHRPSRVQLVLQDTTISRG

CCOC(=O)C(=Cc1ccccc1OC)C(=O)OCC
IC50 [1]: 15.3 µM (inactive)
IC50 (Perilipin-1/ABHD5): 11.5 µM (inactive)

COC(=O)C(=N/Nc1ccccc1C(=O)OC)/C(C)=N/O
EC50 (Troponin, cardiac muscle): > 71.5 µM (inactive)

CCOc1cc2[nH]c(=S)n(CCC(=O)N3CCc4ccccc4C3)c(=O)c2cc1OCC
EC50 [2]: > 100 µM (inactive)
AC50 (Cytochrome P450 3A4): 3.55 µM (inconclusive)

Cc1cccc(/C=N/NC(=O)c2cccc(Cl)c2)n1
EC50 [3]: 5.31 µM (active)

O=C1C=CC(O)(c2cc(=O)c3c(O)cc(O)cc3o2)C=C1 [PROTOAPIGENONE]
AC50 [4]: 5.12 µM (active)
AC50 [5]: 27.1 µM (active)
CC50 [6]: 2.6 µM (active)
CC50 [7]: 5.74 µM (active)
IC50 (cells): 3.02 µM (active)
CC50 [8]: 3.28 µM (active)
AC50 [9]: 21.4 µM (active)
EC50 (Wee1-like protein kinase): > 1.84 µM (active)
AC50 [10]: 32.3 µM (active)
IC50 [11]: > 80 µM (inactive)
AC50 [12]: 6.31 µM (active)
CC50 (HeLa): > 1.22 µM (not active)
EC50 [13]: > 1.84 µM (active)
AC50 [14]: 7.09 µM (active)
EC50 [15]: 4.28 µM (active)
AC50 [16]: 4.47 µM (active)
AC50 [17]: 5.13 µM (active)

COC(=O)c1cccc(NC(=O)Nc2ccc(Cl)cc2)c1
EC50 (Mucolipin-3): > 29.9 µM (not active)
EC50 (Ion channel NompC): > 29.9 µM (inactive)

CC(NS(=O)(=O)c1ccc(Br)cc1)C(=O)Nc1nc2ccccc2[nH]1 (configuration not stated)
EC50 [18]: 14.3 µM (active)
EC50 [19]: > 100 µM (inactive)
EC50 [20]: 11 µM (active)
IC50 [21]: > 100 µM (inactive)
EC50 [22]: 13.3 µM (active)

Cc1ccc(C#N)c(OCCOc2ccc(Cl)cc2Cl)n1
EC50 [23]: > 50 µM (inactive)

COc1cc(S(=O)(=O)N2CCOCC2)ccc1NC(=O)c1cc2c(s1)CCC2
EC50 [24]: 2.83 µM (active)
